Test in all cases: PTP IC50 assay, pNPP or FDP as substrate
Type in all cases: biochemical

One assay concerns the target T1, PTP EPSILON (Homo sapiens, UniProt P23469).
T1 construct: made in house; host or cells: Sf-9 insect cells (pFastBac-G2T); a pGEX 6P-1 construct also existed
The method, then:
(§1) The following in vitro assay procedure is preferred to determine the level of activity and effect of the different compounds of the present invention on one or more of the PTPs. Similar assays can be designed along the same lines for any PTP using techniques well known in the art.
(§2) The catalytic assays described herein are performed in a 96-well format. The general procedure begins with the determination of PTP optimal pH using a three-component buffer system that minimizes ionic strength variations across a wide range of buffer pH. Next, the Michaelis-Menten constant, or Km, is determined for each specific substrate-PTP system. This Km value is subsequently used as the substrate reaction concentration for compound screening. Finally, the test PTP is exposed to varying concentrations of compound for fifteen minutes and allowed to react with substrate for ten minutes. The results are plotted as percent inhibition versus compound concentration and the IC50 interpolated from the plot.
(§3) All assays were performed using pNPP or FDP as substrate. The optimum pH was determined for each PTP used.
(§4) PTPase activity was assayed at 25° C. in a 100-μl reaction mixture containing an appropriate concentration of pNPP or FDP as substrate. The reaction was initiated by addition of the PTP and quenched after 10 min by addition of 50 μl of IN NaOH. The non-enzymatic hydrolysis of the substrate was corrected by measuring the control without the addition of the enzyme. The amount of p-nitrophenol produced was determined from the absorbance at 410 nm. To determine the kinetic parameter, Km, the initial velocities were measured at various substrate concentrations and the data were fitted to the Michaelis equation where velocity=(Vmax*[S])/(Km+[S]), and [S]=substrate reaction concentration.
(§5) The effect of the compounds on PTP was evaluated at 25° C. using pNPP or FDP as substrate. PTP was pre-incubated for fifteen minutes with various concentrations of compound. Substrate was then added at a fixed concentration (usually equal to the Km previously calculated). After 10 minutes, NaOH was added to stop the reaction. The hydrolysis of pNPP was followed at 410 nm on the Biotek Powerwave 200 microplate scanning spectrophotometer. The percent inhibition was calculated as follows: Percent Inhibition=[(control signal−compound signal)/control signal] ×100%. The IC50 was then determined by interpolation of a percent inhibition versus compound concentration plot.
(§6) Plasmids designed for bacterial GST-PTP fusion protein expression were derived by insertion of PCR-generated human PTP fragments into pGEX vectors (Pharmacia Biotech). Several of these constructs were then used to subclone phosphatases into pFastBac-1for expression in Sf-9 insect cells. Oligonucleotides used for the initial amplification of PTP genes are shown below. The cDNAs were prepared using the Gilbo BRL superscript preamplification system on RNAs purchased from Clontech.
The PTPepsilon cDNA was amplified from human placenta single-strand cDNA (Clontech RNA) using the following oligonucleotides: 5′oligo: 5′-[…]-3′ (SEQ ID NO: 6) 3′oligo: 5′-[…]-3′ (SEQ ID NO: 7) After cloning this PCR product into the Bam HI/Xho I sites of pGEX 6P-1, this phosphatase was subcloned using the same restriction sites in pFastBac-G2T.

In the next assay the target is T2, PTP MEG2 (Homo sapiens, UniProt P43378).
T2 construct: made in house; host or cells: E. coli BL-21 (pGEX 6P-1)
T2 sequence (P43378 262-593 limits assumed): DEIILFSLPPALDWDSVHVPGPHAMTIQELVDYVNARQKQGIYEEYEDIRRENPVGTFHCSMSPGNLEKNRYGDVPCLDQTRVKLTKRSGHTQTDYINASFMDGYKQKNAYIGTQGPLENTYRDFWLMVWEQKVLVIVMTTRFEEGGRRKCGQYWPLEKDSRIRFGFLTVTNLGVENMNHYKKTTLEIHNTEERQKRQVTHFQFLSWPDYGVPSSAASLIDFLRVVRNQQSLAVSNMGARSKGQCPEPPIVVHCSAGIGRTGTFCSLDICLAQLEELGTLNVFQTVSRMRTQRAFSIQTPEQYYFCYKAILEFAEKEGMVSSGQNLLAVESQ
As to the method: as §1, §2, §3, §4, §5, §6
The PTP MEG2 cDNA was amplified from human placenta single strand cDNA (Clontech RNA) using the following oligonucleotides: 5′oligo: 5′-[…]-3′ (SEQ ID NO: 8) 3′oligo: 5′-[…]-3′ (SEQ ID NO: 9) and subsequently ligated into pGex 6P-1 Eco RI/Xho I sites.

A further assay concerns the target T3, PTP ALPHA (Homo sapiens, UniProt P18433).
T3 construct: RTPα intracellular domain construct was obtained; made in house; host or cells: E. coli BL-21 (pGEX 3X)
Particulars: 25° C. As to the method:
as §1, §2, §3, §4, §5, §6
RTPα intracellular domain construct was obtained, Schlessinger et al., U.S. Pat. No. 5,888,794, the contents of which are hereby incorporated in their entirety into the present application. The RTPα fragment was cloned into pGEX 3× using the following procedure. The portion from EclX I/Xma III/Eag I (N-terminus blunted by Klenow) to Eco RV was cloned into the Sma I site. The EclX I site is approximately 15 residues downstream of the transmembrane domain.

Another assay addresses T4, PTP BETA (Homo sapiens, UniProt P23467).
T4 construct: The catalytic domain was amplified using the following oligonucleotides; made in house; host or cells: E. coli BL-21 (pGEX 6P-1)
The method, then: as §1, §2, §3, §4, §5, §6
The PTP Beta cDNA used has been described earlier (Levy et al., 1993, J. Biol. Chem, 268:10573-10581). The catalytic domain was amplified using the following oligonucleotides: 5′oligo: 5′-[…]-3′ (SEQ ID NO: 16) 3′oligo: 5′-[…]-3′ (SEQ ID NO: 17) and subsequently cloned into the Eco RI/Xho I sites of pGEX 6P-1.

The target in a further assay is T5, PTP MU (Homo sapiens, UniProt P28827).
T5 construct: made in house; host or cells: E. coli BL-21 (pGEX 6P-1)
As to the method:
as §1, §2, §3, §4, §5, §6
The PTP Mu cDNA was amplified from a human lung cDNA library (Clontech) using the following oligonucleotides; 5′oligo: 5′-[…]-3′ (SEQ ID NO: 18) 3′oligo: 5′-[…]-3′ (SEQ ID NO: 19) It was subsequently ligated into the Eco RI/Xho I sites of pGEX 6P-1.

The mark [1] stands for this setting: pNPP or FDP as substrate, 25° C., read-out: PTP IC50 Epilson.
Where [2] appears, read: pNPP or FDP as substrate, 25° C., read-out: PTP IC50 MEG2.
[3] abbreviates: pNPP or FDP as substrate, 25° C., read-out: PTP IC50 Beta.
[4] abbreviates: pNPP or FDP as substrate, 25° C., read-out: PTP IC50 Mu.
Where [5] appears, read: comparison of R groups, read-out: IC50 Epsilon.
Where [6] appears, read: comparison of R groups, read-out: IC50 MEG2.
The mark [7] stands for this setting: comparison of R groups, read-out: IC50 Beta.
Setting [8] is: comparison of R groups, read-out: IC50 Mu.

SMILES strings stand for the structures. Like-named read-outs stand apart in the source and are kept apart here.

T4 sequence (P23467 1653-1997): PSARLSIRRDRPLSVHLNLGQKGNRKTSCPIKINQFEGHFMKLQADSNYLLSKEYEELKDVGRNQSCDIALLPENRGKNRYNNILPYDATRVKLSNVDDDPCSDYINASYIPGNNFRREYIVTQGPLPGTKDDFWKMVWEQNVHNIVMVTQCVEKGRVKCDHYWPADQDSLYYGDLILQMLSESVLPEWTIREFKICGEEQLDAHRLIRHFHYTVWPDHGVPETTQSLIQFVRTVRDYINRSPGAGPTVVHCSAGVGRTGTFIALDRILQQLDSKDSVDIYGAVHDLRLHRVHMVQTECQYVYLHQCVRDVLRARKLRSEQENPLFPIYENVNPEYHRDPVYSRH
T5 sequence (P28827 831-1186 limits assumed): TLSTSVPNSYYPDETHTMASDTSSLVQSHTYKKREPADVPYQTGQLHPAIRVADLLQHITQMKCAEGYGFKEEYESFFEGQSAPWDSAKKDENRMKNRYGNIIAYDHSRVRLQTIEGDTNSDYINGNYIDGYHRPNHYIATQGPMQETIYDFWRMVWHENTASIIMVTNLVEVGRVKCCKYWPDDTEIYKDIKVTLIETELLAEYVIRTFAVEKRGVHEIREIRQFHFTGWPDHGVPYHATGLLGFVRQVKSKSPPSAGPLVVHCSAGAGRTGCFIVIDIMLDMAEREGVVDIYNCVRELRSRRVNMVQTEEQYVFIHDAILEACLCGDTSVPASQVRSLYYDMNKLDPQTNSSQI
T1 sequence (P23469 80-393 limits assumed): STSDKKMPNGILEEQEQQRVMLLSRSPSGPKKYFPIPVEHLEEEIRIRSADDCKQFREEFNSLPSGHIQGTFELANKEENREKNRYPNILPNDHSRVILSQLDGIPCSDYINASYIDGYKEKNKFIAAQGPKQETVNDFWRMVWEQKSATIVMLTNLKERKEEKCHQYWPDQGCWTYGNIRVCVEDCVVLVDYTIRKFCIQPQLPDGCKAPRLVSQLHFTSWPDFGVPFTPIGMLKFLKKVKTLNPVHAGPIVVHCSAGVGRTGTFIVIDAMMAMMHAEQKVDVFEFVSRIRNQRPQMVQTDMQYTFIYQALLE

Consider `O=C(O)c1cc(Oc2ccc(S(=O)(=O)C(F)(F)F)cc2)cc(Oc2ccc(S(=O)(=O)C(F)(F)F)cc2)c1` [Example 31, 3,5-Bis-(4-trifluoromethanesulfonyl-phenoxy)-benzoic acid], for which the IC50 at PTP EPSILON (setting [1]) amounted to 1.8 µM; at PTP MEG2 (setting [2]), 9.6 µM; on PTP ALPHA, 6 µM; at PTP BETA (setting [3]), 4.5 µM; at PTP MU (setting [4]), 8.7 µM.

In the case of `O=C(Cc1cccc(CC(=O)Nc2cccc(S(=O)(=O)C(F)(F)F)c2)c1)Nc1cccc(S(=O)(=O)C(F)(F)F)c1` [Example 21, N-(3-Trifluoromethanesulfonyl-phenyl)-2-{3-[(3-trifluoromethanesulfonyl-phenylcarbamoyl)-methyl]-phenyl}-acetamide], the IC50 at PTP EPSILON (setting [1]) was 57.8 µM; at PTP MEG2 (setting [2]), 49.4 µM; at PTP ALPHA it was greater than 100 µM; on PTP BETA (setting [3]), 3.1 µM; at PTP MU (setting [4]), 47.7 µM.

Consider `O=S(=O)(Nc1ccc(OCCCOc2ccc(NS(=O)(=O)C(F)(F)F)cc2)cc1)C(F)(F)F` [Example 69, 1,3-Bis(4-trifluoromethylsulfonamidophenoxy)propane], for which the IC50 at PTP EPSILON (setting [1]) was 40.7 µM; at PTP MEG2 (setting [2]), greater than 100 µM; at PTP ALPHA, 31 µM; on PTP BETA (setting [3]) it was greater than 100 µM; on PTP MU (setting [4]), 37 µM.

Consider `O=S(=O)(Nc1ccc(OCCCCOc2ccc(NS(=O)(=O)C(F)(F)F)cc2)cc1)C(F)(F)F` [Example 70, 1,4-Bis(4-trifluoromethylsulfonamidophenoxy)butane], for which the half-inhibitory concentration (IC50) came out at 48.4 µM on PTP EPSILON (setting [1]); 70.7 µM on PTP MEG2 (setting [2]); 46 µM on PTP ALPHA; 7 µM at PTP BETA (setting [3]); 65.3 µM at PTP MU (setting [4]).

As to `O=S(=O)(c1ccc(CCc2ccc(S(=O)(=O)C(F)(F)F)cc2)cc1)C(F)(F)F` [Example 4, 1,2-Bis(4-trifluoromethylsulfonylphenyl)ethane], the 50% inhibitory concentration (IC50) on PTP EPSILON (setting [1]) was 16.6 µM; on PTP MEG2 (setting [2]), 45.9 µM; on PTP ALPHA, greater than 100 µM; on PTP BETA (setting [3]) it was 6.8 µM; on PTP MU (setting [4]), greater than 100 µM.

For the molecule `CN(C)CC(COc1ccc(S(=O)(=O)C(F)(F)F)cc1[N+](=O)[O-])Oc1ccc(S(=O)(=O)C(F)(F)F)cc1[N+](=O)[O-]` (stereo not shown) [Example 24, [2,3-Bis-(2-nitro-4-trifluoromethanesulfonyl-phenoxy)-propyl]-dimethyl-amine], the IC50 was greater than 100 µM on PTP EPSILON (setting [1]); greater than 100 µM on PTP MEG2 (setting [2]); greater than 100 µM at PTP ALPHA; 5.1 µM at PTP BETA (setting [3]); greater than 100 µM at PTP MU (setting [4]).

`O=C(O)Cc1cccc(CC(=O)Nc2cccc(S(=O)(=O)C(F)(F)F)c2)c1` [Example 28, {3-[(3-Trifluoromethanesulfonyl-phenylcarbamoyl)-methyl]-phenyl}-acetic acid]: the IC50 at PTP EPSILON (setting [1]) was 3.1 µM; on PTP MEG2 (setting [2]), 33.3 µM; on PTP ALPHA it was 36.2 µM; at PTP BETA (setting [3]), 3.2 µM; at PTP MU (setting [4]), greater than 100 µM.

For the molecule `O=S(=O)(c1ccc(COCc2ccc(S(=O)(=O)C(F)(F)F)cc2)cc1)C(F)(F)F` [Example 1, Bis (4-trifluoromethylsulfonylbenzyl) ether], the IC50 was 24.3 µM on PTP EPSILON (setting [1]); 55 µM at PTP MEG2 (setting [2]); greater than 100 µM at PTP ALPHA; 5.9 µM at PTP BETA (setting [3]); greater than 100 µM at PTP MU (setting [4]).

Turning to `O=S(=O)(Nc1ccc(Oc2ccc(Oc3ccc(NS(=O)(=O)C(F)(F)F)cc3)cc2)cc1)C(F)(F)F` [Example 71, 1,4-Bis(4-trifluoromethylsulfonamidophenoxy)benzene], the IC50 stood at 16.9 µM at PTP EPSILON (setting [5]); 16.9 µM on PTP EPSILON (setting [1]); 39.4 µM at PTP MEG2 (setting [6]); 39.4 µM at PTP MEG2 (setting [2]); 11.9 µM on PTP ALPHA; 12.1 µM at PTP BETA (setting [7]). In addition, the figures for the IC50 on PTP BETA (setting [3]) and on PTP MU (setting [8]) were 12.1 µM and 4 µM, respectively.

For the molecule `O=C(O)Cc1ccccc1CC(=O)Nc1cccc(S(=O)(=O)C(F)(F)F)c1` [Example 27, {2-[(3-Trifluoromethanesulfonyl-phenylcarbamoyl)-methyl]-phenyl}-acetic acid], the IC50 at PTP EPSILON (setting [1]) is 3.8 µM; at PTP MEG2 (setting [2]) it was greater than 100 µM; at PTP ALPHA, greater than 100 µM; at PTP BETA (setting [3]) it was 61.4 µM; on PTP MU (setting [4]) it was greater than 100 µM.

Turning to `O=C(NCc1ccc(S(=O)(=O)C(F)(F)F)cc1)c1ccccc1` [Example 6, N-(4-Trifluoromethylsulfonylbenzyl)benzamide], the IC50 on PTP EPSILON (setting [1]), at PTP MEG2 (setting [2]), on PTP ALPHA, at PTP BETA (setting [3]) and at PTP MU (setting [4]) was greater than 100 µM in each case.

For the molecule `O=C(Cc1ccccc1CC(=O)Nc1cccc(S(=O)(=O)C(F)(F)F)c1)Nc1cccc(S(=O)(=O)C(F)(F)F)c1` [Example 20, N-(3-Trifluoromethanesulfonyl-phenyl)-2-{2-[(3-trifluoromethanesulfonyl-phenylcarbamoyl)-methyl]-phenyl}-acetamide], the IC50 was 7.5 µM at PTP EPSILON (setting [1]); greater than 100 µM on PTP MEG2 (setting [2]); greater than 100 µM at PTP ALPHA; 8.7 µM on PTP BETA (setting [3]); 37.9 µM at PTP MU (setting [4]).

Turning to `CS(=O)(=O)Nc1ccc(Oc2ccc(Oc3ccc(NS(C)(=O)=O)cc3)cc2)cc1` [CH3SO2NH—], the half-inhibitory concentration (IC50) was 51.4 µM at PTP EPSILON (setting [5]), greater than 100 µM at PTP MEG2 (setting [6]), 62.6 µM on PTP BETA (setting [7]) and greater than 100 µM at PTP MU (setting [8]).

The values above are taken from patent US6596772B1, “Phosphate mimics and methods of treatment using phosphatase inhibitors” (Sugen, Inc., priority 1999, dated 2003).
